Test results reported in PubChem BioAssay AID330 (DTP/NCI, 2004).
“And” between values parts separate entries of the source, which are not always exact repeats. Equal values may be shown once. Toxic doses and inconclusive results are not listed. The calls were made as follows: active = survival T/C of 150% or more; inactive = T/C below 125% in these data.

Test system: P388 leukemia ip, CD2F1 mice, survival T/C
Assay: NCI In Vivo Anticancer Drug Screen. Data for tumor model P388 Leukemia (intraperitoneal) in CD2F1 (CDF1) mice
Conditions: endpoint: median survival time, higher = longer survival
Method in brief: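 Mice carrying the transplanted tumor received test compound or vehicle. Survival was recorded in each group, and the value is the treated-group measurement divided by that of the vehicle-treated control group.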

[1] = dose: 100.0 mg/kg/injection, schedule: Q01DX009 (ip), vehicle: Klucel (hydroxypropylcellulose) (HPC)
[2] = dose: 200.0 mg/kg/injection, schedule: Q01DX009 (ip), vehicle: Klucel (hydroxypropylcellulose) (HPC)
[3] = dose: 400.0 mg/kg/injection, schedule: Q01DX009 (ip), vehicle: Klucel (hydroxypropylcellulose) (HPC)
[4] = dose: 50.0 mg/kg/injection, schedule: Q01DX009 (ip), vehicle: Klucel (hydroxypropylcellulose) (HPC)
[5] = dose: 60.0 mg/kg/injection, schedule: Q01DX005 (ip), vehicle: saline with Tween-80
[6] = dose: 120.0 mg/kg/injection, schedule: Q01DX005 (ip), vehicle: saline with Tween-80
[7] = dose: 50.0 mg/kg/injection, schedule: Q01DX009 (ip), vehicle: saline
[8] = dose: 100.0 mg/kg/injection, schedule: Q01DX009 (ip), vehicle: saline
[9] = dose: 12.5 mg/kg/injection, schedule: Q01DX009 (ip), vehicle: saline with Tween-80
[10] = dose: 25.0 mg/kg/injection, schedule: Q01DX009 (ip), vehicle: saline with Tween-80
[11] = dose: 60.0 mg/kg/injection, schedule: Q01DX005 (ip), vehicle: Klucel (hydroxypropylcellulose) (HPC)
[12] = dose: 120.0 mg/kg/injection, schedule: Q01DX005 (ip), vehicle: Klucel (hydroxypropylcellulose) (HPC)
[13] = dose: 240.0 mg/kg/injection, schedule: Q01DX005 (ip), vehicle: Klucel (hydroxypropylcellulose) (HPC)
[14] = dose: 50.0 mg/kg/injection, schedule: Q01DX005 (ip), vehicle: Klucel (hydroxypropylcellulose) (HPC)
[15] = dose: 200.0 mg/kg/injection, schedule: Q01DX009 (ip), vehicle: saline
[16] = dose: 50.0 mg/kg/injection, schedule: Q01DX009 (ip), vehicle: saline with Tween-80

Measured: T/C

S=P(Nc1ccccc1)(Nc1ccccc1)c1ccccc1
inactive: [1] 103 % of control | [2] 106 % of control | [3] 95 % of control

CCOC(=O)/C=C/c1c[nH]c(C(=O)OCC)c1
inactive: [4] 93 % of control | [1] 91 % of control | [2] 93 % of control | [3] 108 % of control

CN(C)C1C(=O)c2ccccc2C1=O
inactive: [5] 96 % of control | [6] 107 % of control | dose: 240.0 mg/kg/injection, schedule: Q01DX005 (ip), vehicle: saline with Tween-80 112 % of control

Cc1nc(Cl)c(C)c(=O)[nH]1
active: [7] 165 % of control | [8] 166 % of control

C(=C\c1cc2ccc(C3=NCCN3)cc2[nH]1)/c1ccc(C2=NCCN2)cc1
inactive: dose: 6.25 mg/kg/injection, schedule: Q04DX003 (ip), vehicle: saline 118 % of control

NNc1ccc(Cl)nn1
inactive: dose: 7.5 mg/kg/injection, schedule: Q01DX005 (ip), vehicle: saline with Tween-80 101 % of control | dose: 15.0 mg/kg/injection, schedule: Q01DX005 (ip), vehicle: saline with Tween-80 99 % of control

C=C(Cl)CN(CCCC(=O)O)c1ccccc1
inactive: dose: 100.0 mg/kg/injection, schedule: Q04DX003 (ip), vehicle: other 100 % of control | dose: 200.0 mg/kg/injection, schedule: Q04DX003 (ip), vehicle: other 109 % of control | dose: 400.0 mg/kg/injection, schedule: Q04DX003 (ip), vehicle: other 90 % of control

COc1cc(O)c2c(c1)C(=O)c1cc3c(c(O)c1C2=O)C(O)C(OC)C(C)(O)C3=O (centres undefined)
inactive: dose: 6.25 mg/kg/injection, schedule: Q01DX009 (ip), vehicle: Klucel (hydroxypropylcellulose) (HPC) 95 % of control | dose: 12.5 mg/kg/injection, schedule: Q01DX009 (ip), vehicle: Klucel (hydroxypropylcellulose) (HPC) 105 % of control | dose: 25.0 mg/kg/injection, schedule: Q01DX009 (ip), vehicle: Klucel (hydroxypropylcellulose) (HPC) 98 % of control | [4] 94 % of control | [1] 95 % of control

COC(=O)CN1CC1
inactive: dose: 3.12 mg/kg/injection, schedule: Q01DX009 (ip), vehicle: saline with Tween-80 100 % of control | dose: 6.25 mg/kg/injection, schedule: Q01DX009 (ip), vehicle: saline with Tween-80 95 % of control | [9] 94 % of control | [10] 95 % of control

COC(=O)C(C(=O)OC)=C1C(=O)OCC1(C)C
inactive: dose: 100.0 mg/kg/injection, schedule: Q04DX003 (ip), vehicle: saline 101 % of control | dose: 200.0 mg/kg/injection, schedule: Q04DX003 (ip), vehicle: saline 100 % of control | dose: 400.0 mg/kg/injection, schedule: Q04DX003 (ip), vehicle: saline 100 % of control

COC(=O)c1c(O)c2c(c3c1OC(C)(C)CC3)OC(C)(C)CC2
inactive: [11] 93 % of control | [5] 90 % of control | [12] 92 % of control | [6] 91 % of control | [13] 90 % of control

COC1=C2CC(C)CC(OC)C(O)C(C)/C=C(\C)C(OC(N)=O)C(OC)/C=C\C=C(/C)C(=O)NC(=C(C=NC(C)(C)C)C1=O)C2=O (centres undefined)
inactive: [5] 124 % of control

Cc1csc(=S)n1C
inactive: [7] 92 % of control | [8] 95 % of control

CN(C)c1ncnc2c1ncn2C1CCCCO1 (centres undefined)
inactive: dose: 12.5 mg/kg/injection, schedule: Q01DX005 (ip), vehicle: Klucel (hydroxypropylcellulose) (HPC) 103 % of control | dose: 25.0 mg/kg/injection, schedule: Q01DX005 (ip), vehicle: Klucel (hydroxypropylcellulose) (HPC) 105 % of control | [14] 100 % of control

O=C1c2ccccc2C(=O)C1c1cc(Cl)c(O)c(Cl)c1
inactive: dose: 50.0 mg/kg/injection, schedule: Q04DX002 (ip), vehicle: saline 100 % of control | dose: 50.0 mg/kg/injection, schedule: Q04DX002 (ip), vehicle: suspension in saline 99 % of control | dose: 100.0 mg/kg/injection, schedule: Q04DX002 (ip), vehicle: saline 117 % of control and 94 % of control | dose: 100.0 mg/kg/injection, schedule: Q04DX002 (ip), vehicle: suspension in saline 98 % of control | dose: 200.0 mg/kg/injection, schedule: Q04DX002 (ip), vehicle: saline 101 % of control and 117 % of control | dose: 200.0 mg/kg/injection, schedule: Q04DX002 (ip), vehicle: suspension in saline 100 % of control | dose: 400.0 mg/kg/injection, schedule: Q04DX002 (ip), vehicle: saline 96 % of control | dose: 400.0 mg/kg/injection, schedule: Q04DX002 (ip), vehicle: suspension in saline 100 % of control

N#Cc1cc(Br)ccc1[N+](=O)[O-]
inactive: dose: 6.25 mg/kg/injection, schedule: Q01DX009 (ip), vehicle: saline 103 % of control | dose: 12.5 mg/kg/injection, schedule: Q01DX009 (ip), vehicle: saline 101 % of control | [7] 94 % of control | [8] 90 % of control | [15] 99 % of control

C[N+]1(C)N=C([O-])N(c2ccccc2C(F)(F)F)C1=O
inactive: [9] 99 % of control | [10] 99 % of control | [16] 106 % of control

COC(=O)C(N)=NCC(C)NC(=O)c1ccccc1 (centres undefined)
inactive: [4] 99 % of control | [1] 101 % of control | [2] 100 % of control

NC(Cc1c[nH]c(=O)[nH]c1=O)C(=O)O (centres undefined)
inactive: [14] 96 % of control | dose: 100.0 mg/kg/injection, schedule: Q01DX005 (ip), vehicle: Klucel (hydroxypropylcellulose) (HPC) 100 % of control | dose: 200.0 mg/kg/injection, schedule: Q01DX005 (ip), vehicle: Klucel (hydroxypropylcellulose) (HPC) 88 % of control

NC1(C(=O)O)CCCC1C(=O)O (centres undefined)
inactive: [7] 99 % of control | [8] 99 % of control | [15] 90 % of control

Cc1cccc(/C=N/Nc2cc(C)nc3ccccc23)n1
inactive: [4] 109 % of control | [1] 118 % of control | [2] 117 % of control

O=S(=O)(CCl)NCCCl
inactive: [16] 100 % of control | dose: 100.0 mg/kg/injection, schedule: Q01DX009 (ip), vehicle: saline with Tween-80 106 % of control | dose: 200.0 mg/kg/injection, schedule: Q01DX009 (ip), vehicle: saline with Tween-80 106 % of control

CN(C)CCCSc1nnc(-c2ccc3c(c2)OCO3)o1
inactive: dose: 50.0 mg/kg/injection, schedule: Q04DX002 (ip), vehicle: water 106 % of control | dose: 100.0 mg/kg/injection, schedule: Q04DX002 (ip), vehicle: water 100 % of control | dose: 200.0 mg/kg/injection, schedule: Q04DX002 (ip), vehicle: water 101 % of control

CC(=O)Oc1cc2c(c3ccccc13)OC(=O)CCCCCCCCCCC2=O
inactive: dose: 100.0 mg/kg/injection, schedule: Q04DX002 (ip), vehicle: Klucel (hydroxypropylcellulose) (HPC) 93 % of control | dose: 200.0 mg/kg/injection, schedule: Q04DX002 (ip), vehicle: Klucel (hydroxypropylcellulose) (HPC) 118 % of control | dose: 400.0 mg/kg/injection, schedule: Q04DX002 (ip), vehicle: Klucel (hydroxypropylcellulose) (HPC) 107 % of control

C[n+]1c2ccccc2c(N)c2ccccc21
inactive: dose: 30.0 mg/kg/injection, schedule: Q04DX002 (ip), vehicle: saline with Tween-80 117 % of control

Nc1ccc2nc3cc4c5ccccc5c(=O)c5cccc(c54)n3c(=O)c2c1
inactive: dose: 50.0 mg/kg/injection, schedule: Q01DX005 (ip), vehicle: Klucel + Tween-80 104 % of control

CCCCCCCCCCCC[N+]1(CC)CCCCC1
inactive: dose: 0.39 mg/kg/injection, schedule: Q01DX009 (ip), vehicle: saline 108 % of control | dose: 0.78 mg/kg/injection, schedule: Q01DX009 (ip), vehicle: saline 109 % of control | dose: 1.56 mg/kg/injection, schedule: Q01DX009 (ip), vehicle: saline 118 % of control

NCC1CCCCO1 (centres undefined)
inactive: dose: 50.0 mg/kg/injection, schedule: Q01DX005 (ip), vehicle: saline 98 % of control | dose: 100.0 mg/kg/injection, schedule: Q01DX005 (ip), vehicle: saline 99 % of control | dose: 200.0 mg/kg/injection, schedule: Q01DX005 (ip), vehicle: saline 91 % of control

CCCCN1C(=O)[C@@H]2[C@H](c3ccccc3O)C(c3ccccc3O)[C@@H]2C1=O (some centres undefined)
inactive: [11] 100 % of control | [12] 92 % of control | [13] 100 % of control
